Experimental data as given in US20120029187A1, “HALOALKYLSULFONANILIDE DERIVATIVE” (Nissan Chemical Industries, Ltd., priority 2009, published 2012).

Columns and labels:
Format in all cases: in vivo
[1] = tested on: barnyardgrass; experiment: Test Example 1: herbicidal effects in preemergence treatment under submerged conditions; conditions: dose 2.52 g/a
Procedure, shortened: (§1)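 Weed seeds and 2.5-leaf rice seedlings shared each flooded cup of alluvial soil. Dosing, expressed as g per are, was by pouring water-diluted emulsifiable concentrate onto the surface on sowing day. Mortality was graded 0 to 5 after three weeks' growth.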

[2] = tested on: bulrush; experiment: as above; conditions: dose 2.52 g/a
Procedure, shortened: as §1

[3] = tested on: ducksalad; experiment: as above; conditions: dose 2.52 g/a
Procedure, shortened: as §1

[4] = tested on: transplanted rice; experiment: Test Example 1: preemergence treatment under submerged conditions, effect on crop; conditions: dose 2.52 g/a
Procedure, shortened: as §1

[5] = tested on: barnyardgrass; experiment: Test Example 2: herbicidal effects during the vegetation period under submerged conditions; conditions: treatment during the vegetation period under submerged conditions; dose 2.52 g/a
Procedure, shortened: (§2)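 Barnyardgrass, bulrush and ducksalad were co-sown in alluvial soil flooded to 4 cm and grown in a greenhouse at 25 to 30° C. At the 1- or 2-leaf stage, water-diluted emulsifiable concentrates went onto the water surface at set doses (g/a). Herbicidal effect was scored three weeks later on a graded scale.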

[6] = tested on: bulrush; experiment: as above; conditions: treatment during the vegetation period under submerged conditions; dose 2.52 g/a
Procedure, shortened: as §2

[7] = tested on: ducksalad; experiment: as above; conditions: treatment during the vegetation period under submerged conditions; dose 2.52 g/a
Procedure, shortened: as §2

[8] = tested on: Italian ryegrass; experiment: Test Example 3: herbicidal effects in soil treatment; conditions: dose 3.2 g/a
Procedure, shortened: (§3)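 Seeds were sown in sterilized diluvial soil and covered with about 1.5 cm of soil. Compounds, formulated as emulsifiable concentrates and diluted with water, were sprayed evenly over the soil surface at set doses in g/a. Herbicidal effect was scored on a rating scale three weeks later.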

[9] = tested on: barnyardgrass; experiment: as above; conditions: dose 3.2 g/a
Procedure, shortened: as §3

[10] = tested on: beadstraw; experiment: as above; conditions: dose 3.2 g/a
Procedure, shortened: as §3

[11] = tested on: common chickweed; experiment: as above; conditions: dose 3.2 g/a
Procedure, shortened: as §3

[12] = tested on: common lambsquater; experiment: as above; conditions: dose 3.2 g/a
Procedure, shortened: as §3

[13] = tested on: common ragweed; experiment: as above; conditions: dose 3.2 g/a
Procedure, shortened: as §3

[14] = tested on: giant foxtail; experiment: as above; conditions: dose 3.2 g/a
Procedure, shortened: as §3

[15] = tested on: large crabgrass; experiment: as above; conditions: dose 3.2 g/a
Procedure, shortened: as §3

[16] = tested on: posumbu knotweed; experiment: as above; conditions: dose 3.2 g/a
Procedure, shortened: as §3

[17] = tested on: redroot pigweed; experiment: as above; conditions: dose 3.2 g/a
Procedure, shortened: as §3

[18] = tested on: velvetleaf; experiment: as above; conditions: dose 3.2 g/a
Procedure, shortened: as §3

[19] = tested on: water foxtail; experiment: as above; conditions: dose 3.2 g/a
Procedure, shortened: as §3

[20] = tested on: Italian ryegrass; experiment: Test Example 4: herbicidal effect in foliage treatment; conditions: dose 3.2 g/a, three weeks after application
Procedure, shortened: (§4)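 Visual herbicidal scores on a graded scale were recorded three weeks after foliar application. Compounds went on as diluted emulsifiable concentrates at predetermined g/a to plants grown 14 days in a 25 to 30° C greenhouse.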

[21] = tested on: barnyardgrass; experiment: as above; conditions: dose 3.2 g/a, three weeks after application
Procedure, shortened: as §4

[22] = tested on: common chickweed; experiment: as above; conditions: dose 3.2 g/a, three weeks after application
Procedure, shortened: as §4

[23] = tested on: common lambsquater; experiment: as above; conditions: dose 3.2 g/a, three weeks after application
Procedure, shortened: as §4

[24] = tested on: common ragweed; experiment: as above; conditions: dose 3.2 g/a, three weeks after application
Procedure, shortened: as §4

[25] = tested on: giant foxtail; experiment: as above; conditions: dose 3.2 g/a, three weeks after application
Procedure, shortened: as §4

[26] = tested on: large crabgrass; experiment: as above; conditions: dose 3.2 g/a, three weeks after application
Procedure, shortened: as §4

[27] = tested on: posumbu knotweed; experiment: as above; conditions: dose 3.2 g/a, three weeks after application
Procedure, shortened: as §4

[28] = tested on: redroot pigweed; experiment: as above; conditions: dose 3.2 g/a, three weeks after application
Procedure, shortened: as §4

[29] = tested on: velvetleaf; experiment: as above; conditions: dose 3.2 g/a, three weeks after application
Procedure, shortened: as §4

[30] = tested on: water foxtail; experiment: as above; conditions: dose 3.2 g/a, three weeks after application
Procedure, shortened: as §4

[31] = tested on: beadstraw; experiment: as above; conditions: dose 3.2 g/a, three weeks after application
Procedure, shortened: as §4

SMILES	A: barnyardgrass, herbicidal effect (evaluation scale 0-5) [1]	B: bulrush, herbicidal effect (evaluation scale 0-5) [2]	C: ducksalad, herbicidal effect (evaluation scale 0-5) [3]	a: transplanted rice, effect on crop (evaluation scale 0-5) [4]	A: barnyardgrass, herbicidal effect (evaluation scale 0-5) [5]	B: bulrush, herbicidal effect (evaluation scale 0-5) [6]	C: ducksalad, herbicidal effect (evaluation scale 0-5) [7]	H: Italian ryegrass, herbicidal effect (evaluation scale 0-5) [8]	A: barnyardgrass, herbicidal effect (evaluation scale 0-5) [9]	O: beadstraw, herbicidal effect (evaluation scale 0-5) [10]	N: common chickweed, herbicidal effect (evaluation scale 0-5) [11]	L: common lambsquater, herbicidal effect (evaluation scale 0-5) [12]	J: common ragweed, herbicidal effect (evaluation scale 0-5) [13]	E: giant foxtail, herbicidal effect (evaluation scale 0-5) [14]	D: large crabgrass, herbicidal effect (evaluation scale 0-5) [15]	K: redroot pigweed, herbicidal effect (evaluation scale 0-5) [17]	I: velvetleaf, herbicidal effect (evaluation scale 0-5) [18]	G: water foxtail, herbicidal effect (evaluation scale 0-5) [19]	H: Italian ryegrass, herbicidal effect [20]	A: barnyardgrass, herbicidal effect [21]	also measured
CC1(C2CC2)CC(=O)N(Cc2ccccc2NS(=O)(=O)C(F)(F)F)CO1 (stereo not drawn) [II-44]	5 (mortality of 90% or above (nearly complete death))	5 (mortality of 90% or above (nearly complete death))	5 (mortality of 90% or above (nearly complete death))	3 (mortality of at least 40% and less than 70%)	5 (mortality of 90% or above (nearly complete death))	5 (mortality of 90% or above (nearly complete death))	5 (mortality of 90% or above (nearly complete death))	5 (mortality of 90% or above (nearly complete death))	5 (mortality of 90% or above (nearly complete death))	0 (mortality of less than 5% (almost ineffective))	2 (mortality of at least 20% and less than 40%)	0 (mortality of less than 5% (almost ineffective))	3 (mortality of at least 40% and less than 70%)	4 (mortality of at least 70% and less than 90%)	4 (mortality of at least 70% and less than 90%)	0 (mortality of less than 5% (almost ineffective))	3 (mortality of at least 40% and less than 70%)	5 (mortality of 90% or above (nearly complete death))	4 (mortality of at least 70% and less than 90%)	4 (mortality of at least 70% and less than 90%)	M: posumbu knotweed, herbicidal effect (evaluation scale 0-5) [16]: 3 (mortality of at least 40% and less than 70%); N: common chickweed, herbicidal effect [22]: 4 (mortality of at least 70% and less than 90%); L: common lambsquater, herbicidal effect [23]: 1 (mortality of at least 5% and less than 20%); J: common ragweed, herbicidal effect [24]: 2 (mortality of at least 20% and less than 40%); E: giant foxtail, herbicidal effect [25]: 3 (mortality of at least 40% and less than 70%); D: large crabgrass, herbicidal effect [26]: 2 (mortality of at least 20% and less than 40%); M: posumbu knotweed, herbicidal effect [27]: 1 (mortality of at least 5% and less than 20%); K: redroot pigweed, herbicidal effect [28]: 0 (mortality of less than 5% (almost ineffective)); I: velvetleaf, herbicidal effect [29]: 3 (mortality of at least 40% and less than 70%); G: water foxtail, herbicidal effect [30]: 4 (mortality of at least 70% and less than 90%)
O=C1CC2(CCC2)OCN1Cc1ccccc1NS(=O)(=O)C(F)(F)F [II-61]	5 (mortality of 90% or above (nearly complete death))	5 (mortality of 90% or above (nearly complete death))	5 (mortality of 90% or above (nearly complete death))	2 (mortality of at least 20% and less than 40%)	5 (mortality of 90% or above (nearly complete death))	5 (mortality of 90% or above (nearly complete death))	5 (mortality of 90% or above (nearly complete death))	5 (mortality of 90% or above (nearly complete death))	5 (mortality of 90% or above (nearly complete death))	5 (mortality of 90% or above (nearly complete death))	5 (mortality of 90% or above (nearly complete death))	5 (mortality of 90% or above (nearly complete death))	4 (mortality of at least 70% and less than 90%)	5 (mortality of 90% or above (nearly complete death))	5 (mortality of 90% or above (nearly complete death))	5 (mortality of 90% or above (nearly complete death))	5 (mortality of 90% or above (nearly complete death))	5 (mortality of 90% or above (nearly complete death))	4 (mortality of at least 70% and less than 90%)	5 (mortality of 90% or above (nearly complete death))	O: beadstraw, herbicidal effect [31]: 3 (mortality of at least 40% and less than 70%); N: common chickweed, herbicidal effect [22]: 4 (mortality of at least 70% and less than 90%); L: common lambsquater, herbicidal effect [23]: 3 (mortality of at least 40% and less than 70%); J: common ragweed, herbicidal effect [24]: 3 (mortality of at least 40% and less than 70%); E: giant foxtail, herbicidal effect [25]: 5 (mortality of 90% or above (nearly complete death)); D: large crabgrass, herbicidal effect [26]: 4 (mortality of at least 70% and less than 90%); M: posumbu knotweed, herbicidal effect [27]: 4 (mortality of at least 70% and less than 90%); K: redroot pigweed, herbicidal effect [28]: 0 (mortality of less than 5% (almost ineffective)); I: velvetleaf, herbicidal effect [29]: 5 (mortality of 90% or above (nearly complete death)); G: water foxtail, herbicidal effect [30]: 5 (mortality of 90% or above (nearly complete death))
